According to ChEMBL document CHEMBL3286290, “In vitro screening of pentamidine analogs against bacterial and fungal strains” (Bioorg Med Chem Lett, 2014):

How the values were obtained:
[1] = system: Micrococcus luteus; test: Antibacterial activity against Micrococcus luteus ATCC 9341 assessed as growth inhibition by M7-A6 method; format: functional
[2] = system: Micrococcus luteus; test: Antibacterial activity against Micrococcus luteus ATCC 10240 assessed as growth inhibition by M7-A6 method; format: functional
[3] = system: Bacillus subtilis; test: Antibacterial activity against Bacillus subtilis ATCC 6633 assessed as growth inhibition by M7-A6 method; format: functional
[4] = system: Bacillus cereus; test: Antibacterial activity against Bacillus cereus ATCC 11778 assessed as growth inhibition by M7-A6 method; format: functional
[5] = system: Staphylococcus aureus; test: Antibacterial activity against Staphylococcus aureus ATCC 6538 assessed as growth inhibition by M7-A6 method; format: functional
[6] = system: Staphylococcus aureus; test: Antibacterial activity against Staphylococcus aureus ATCC 6538P assessed as growth inhibition by M7-A6 method; format: functional
[7] = system: Escherichia coli; test: Antibacterial activity against Escherichia coli ATCC 8739 assessed as growth inhibition by M7-A6 method; format: functional
[8] = system: Pseudomonas aeruginosa; test: Antibacterial activity against Pseudomonas aeruginosa ATCC 15442 assessed as growth inhibition by M7-A6 method; format: functional
[9] = system: Pseudomonas aeruginosa; test: Antibacterial activity against Pseudomonas aeruginosa ATCC 9027 assessed as growth inhibition by M7-A6 method; format: functional
[10] = system: Candida albicans; test: Antifungal activity against Candida albicans ATCC 10231 assessed as growth inhibition by M7-A6 method; format: functional
[11] = system: Candida albicans; test: Antifungal activity against Candida albicans ATCC 2091 assessed as growth inhibition by M7-A6 method; format: functional
[12] = system: Candida parapsilosis; test: Antifungal activity against Candida parapsilosis ATCC 22019 assessed as growth inhibition by M7-A6 method; format: functional; settings: Lodderomyces parapsilosis
[13] = system: Aspergillus brasiliensis; test: Antifungal activity against Aspergillus brasiliensis ATCC 16404 assessed as growth inhibition by M7-A6 method; format: functional
[14] = system: Saccharomyces cerevisiae; test: Antifungal activity against Saccharomyces cerevisiae ATCC 9763 assessed as growth inhibition by M7-A6 method; format: functional
[15] = system: Staphylococcus aureus; test: Antibacterial activity against erythromycin, amikacin, clindamycin, ciprofloxacin, methicillin-resistant Staphylococcus aureus 15K/11 assessed as growth inhibition by M7-A6 method; format: functional
[16] = system: Staphylococcus aureus; test: Antibacterial activity against penicillin, erythromycin, amikacin, clindamycin, ciprofloxacin, methicillin-resistant Staphylococcus aureus 495/11 assessed as growth inhibition by M7-A6 method; format: functional
[17] = system: Staphylococcus aureus; test: Antibacterial activity against penicillin, erythromycin, amikacin, clindamycin, ciprofloxacin, methicillin-resistant Staphylococcus aureus 572/12 assessed as growth inhibition by M7-A6 method; format: functional
[18] = system: Staphylococcus aureus; test: Antibacterial activity against penicillin, erythromycin, clindamycin, ciprofloxacin, methicillin-resistant Staphylococcus aureus 19K/11 assessed as growth inhibition by M7-A6 method; format: functional
[19] = system: Staphylococcus aureus; test: Antibacterial activity against penicillin, erythromycin, amikacin, clindamycin, ciprofloxacin, methicillin-resistant Staphylococcus aureus 573/12 assessed as growth inhibition by M7-A6 method; format: functional
[20] = system: A549; test: Cytotoxicity against human A549 cells assessed as inhibition of cell viability after 48 hrs by MTT assay; format: cell-based; settings: A549, 48 h
[21] = system: A549; test: Cytotoxicity against human A549 cells assessed as inhibition of cell viability after 72 hrs by MTT assay; format: cell-based; settings: A549, 72 h
[22] = system: HeLa; test: Cytotoxicity against human HeLa cells assessed as inhibition of cell viability after 48 hrs by MTT assay; format: cell-based
[23] = system: HeLa; test: Cytotoxicity against human HeLa cells assessed as inhibition of cell viability after 72 hrs by MTT assay; format: cell-based
[24] = Cytotoxicity against human A549 cells assessed as cell viability at 200 ug/ml after 48 hrs by MTT assay; format: cell-based; settings: read-out: Activity
[25] = Cytotoxicity against human A549 cells assessed as cell viability at 100 ug/ml after 48 hrs by MTT assay; format: cell-based; settings: read-out: Activity
[26] = Cytotoxicity against human A549 cells assessed as cell viability at 50 ug/ml after 48 hrs by MTT assay; format: cell-based; settings: read-out: Activity
[27] = Cytotoxicity against human A549 cells assessed as cell viability at 10 ug/ml after 48 hrs by MTT assay; format: cell-based; settings: read-out: Activity
[28] = Cytotoxicity against human A549 cells assessed as cell viability at 200 ug/ml after 72 hrs by MTT assay; format: cell-based; settings: read-out: Activity
[29] = Cytotoxicity against human A549 cells assessed as cell viability at 100 ug/ml after 72 hrs by MTT assay; format: cell-based; settings: read-out: Activity
[30] = Cytotoxicity against human A549 cells assessed as cell viability at 50 ug/ml after 72 hrs by MTT assay; format: cell-based; settings: read-out: Activity
[31] = Cytotoxicity against human A549 cells assessed as cell viability at 10 ug/ml after 72 hrs by MTT assay; format: cell-based; settings: read-out: Activity
[32] = Cytotoxicity against human HeLa cells assessed as cell viability at 200 ug/ml after 48 hrs by MTT assay; format: cell-based; settings: read-out: Activity
[33] = Cytotoxicity against human HeLa cells assessed as cell viability at 100 ug/ml after 48 hrs by MTT assay; format: cell-based; settings: read-out: Activity
[34] = Cytotoxicity against human HeLa cells assessed as cell viability at 50 ug/ml after 48 hrs by MTT assay; format: cell-based; settings: read-out: Activity
[35] = Cytotoxicity against human HeLa cells assessed as cell viability at 10 ug/ml after 48 hrs by MTT assay; format: cell-based; settings: read-out: Activity
[36] = Cytotoxicity against human HeLa cells assessed as cell viability at 200 ug/ml after 72 hrs by MTT assay; format: cell-based; settings: read-out: Activity
[37] = Cytotoxicity against human HeLa cells assessed as cell viability at 100 ug/ml after 72 hrs by MTT assay; format: cell-based; settings: read-out: Activity
[38] = Cytotoxicity against human HeLa cells assessed as cell viability at 50 ug/ml after 72 hrs by MTT assay; format: cell-based; settings: read-out: Activity
[39] = Cytotoxicity against human HeLa cells assessed as cell viability at 10 ug/ml after 72 hrs by MTT assay; format: cell-based; settings: read-out: Activity

Row | SMILES | MIC [1] [µM] | MIC [2] [µM] | MIC [3] [µM] | MIC [4] [µM] | MIC [5] [µM] | MIC [6] [µM] | MIC [7] [µM] | MIC [8] [µM] | MIC [9] [µM] | MIC [10] [µM] | MIC [11] [µM] | MIC [12] [µM] | MIC [13] [µM] | MIC [14] [µM] | MIC [15] [µM] | MIC [16] [µM] | MIC [17] [µM] | MIC [18] [µM] | MIC [19] [µM] | IC50 [20] [µg/mL] | further results
1 | Cl.N=C(N)c1ccc(SCCOCCSc2ccc(C(=N)N)cc2)cc1 | 4.3 | 4.3 | 130 | 540 | 130 | 130 | 540 | 2150 | 1070 | 1070 | 1070 | 270 | 2150 | 540 | 1070 | 1070 | 270 | 130 | 130 | 50 | IC50 [21]: 10 µg/mL; IC50 [22]: < 50 µg/mL; IC50 [23]: < 50 µg/mL; viability at 48 h, 200 ug/ml [24]: 9.5%; viability at 48 h, 100 ug/ml [25]: 19.8%; viability at 48 h, 50 ug/ml [26]: 48.1%; viability at 48 h, 10 ug/ml [27]: 77.1%; viability at 72 h, 200 ug/ml [28]: 7.9%; viability at 72 h, 100 ug/ml [29]: 8.2%; viability at 72 h, 50 ug/ml [30]: 16.2%; viability at 72 h, 10 ug/ml [31]: 56.4%; viability at 48 h, 200 ug/ml [32]: 10.1%; viability at 48 h, 100 ug/ml [33]: 10.3%; viability at 48 h, 50 ug/ml [34]: 10.4%; viability at 48 h, 10 ug/ml [35]: 76.2%; viability at 72 h, 200 ug/ml [36]: 7.4%; viability at 72 h, 100 ug/ml [37]: 7.4%; viability at 72 h, 50 ug/ml [38]: 7.8%; viability at 72 h, 10 ug/ml [39]: 65.3%
2 | CCCCNC(=N)c1ccc(OCCSCCOc2ccc(C(=N)NCCCC)cc2)cc1.Cl | 2.6 | 3.6 | 14 | 450 | 14 | 27 | 110 | > 1810 | > 1810 | 3.6 | 3.6 | 3.6 | 14 | 27 | 230 | 230 | 230 | 110 | 14 | > 100 | IC50 [21]: ≥ 50 µg/mL; IC50 [22]: > 100 µg/mL; IC50 [23]: > 100 µg/mL; viability at 48 h, 200 ug/ml [24]: 59.1%; viability at 48 h, 100 ug/ml [25]: 62.3%; viability at 48 h, 50 ug/ml [26]: 68.8%; viability at 48 h, 10 ug/ml [27]: 89.3%; viability at 72 h, 200 ug/ml [28]: 42.2%; viability at 72 h, 100 ug/ml [29]: 48.5%; viability at 72 h, 50 ug/ml [30]: 50.5%; viability at 72 h, 10 ug/ml [31]: 67.6%; viability at 48 h, 200 ug/ml [32]: 25.8%; viability at 48 h, 100 ug/ml [33]: 63.7%; viability at 48 h, 50 ug/ml [34]: 83.4%; viability at 48 h, 10 ug/ml [35]: 91.8%; viability at 72 h, 200 ug/ml [36]: 18.5%; viability at 72 h, 100 ug/ml [37]: 57.2%; viability at 72 h, 50 ug/ml [38]: 88.3%; viability at 72 h, 10 ug/ml [39]: 99%
